In brackets after ≈: the same amount, converted by molar mass. Where two headings read alike, the source gives them in different places.
What was measured:
Format in all cases: in vivo
[1] = tested on: southern armyworm (Spodoptera eridania); experiment: Southern Armyworm Leaf Spray Bait Test; conditions: 120 h, read-out: Percent Control after 5 days
Protocol: Suspensions of the test compounds were prepared by dissolving one gram of compound in 50 milliliters of acetone in which had been dissolved 0.1 gram (10 percent of the weight of compound) of an alkylphenoxy polyethoxyethanol surfactant, as an emulsifying or dispersing agent. The resulting solution was mixed into 150 milliliters of water to give roughly 200 milliliters of a suspension containing the compound in finely divided form. The thus-prepared stock suspension contained 0.5 percent by weight of compound.
Certain of the test compounds were also prepared by dissolving 375 mg of compound in 7.5 ml of dimethylformamide. Fifteen ml of acetone containing 37.5 mg (10 percent of the weight of test compound) of an alkylphenoxy polyethoxyethanol surfactant, as a wetting/emulsifying/dispersing agent was added to the dimethylformamide solution. Fifty-two and a half ml of water was mixed into the dimethylformamide-acetone mixture to give roughly 75 ml of a suspension containing the compound in solution or in finely divided form. The thus prepared stock suspension contained 0.5 percent by weight of compound. The test concentrations in parts per million by weight employed in the tests described hereinbelow were obtained by appropriate dilutions of the stock suspension with water. The test procedures were as follows:
Larvae of the southern armyworm (Spodoptera eridania, (Cram.), reared on Tendergreen bean plants at a temperature of 80°±5° F. and a relative humidity of 50±5 percent, constituted the test insects.
The test compounds were formulated by diluting the stock suspension with water to give a suspension containing 500 parts of test compound per million parts of final formulation. Potted Tendergreen bean plants of standard height and age were placed on a revolving turntable and sprayed with 100-110 milliliters of test compound formulation by use of a DeVilbiss spray gun set at 40 psig air pressure. This application, which lasted 25 seconds, was sufficient to wet plants to run-off. As a control, 100-110 milliliters of a water-acetone-emulsifier solution containing no test compound were also sprayed on infested plants. When dry, the paired leaves were separated and each one was placed in a 9 centimeter Petri dish lined with moistened filter paper. Five randomly selected larvae were introduced into each dish and the dishes were closed. The closed dishes were labeled and held at 80°-85° F. for five days. Although the larvae could easily consume the whole leaf within twenty-four hours, no more food was added. Larvae which were unable to move the length of the body, even upon stimulation by prodding, were considered dead. Percent mortality was recorded for various concentration levels.

H. Zea = experiment: Comparison against Heliothis spp: H. Zea
H. Virecens = experiment: Comparison against Heliothis spp: H. Virecens; conditions: read-out: LD50, H. Virecens
[2] = Helicoverpa zea; read-out: LD50, H. Zea

Structure (SMILES)	mortality at 5 ppm [1]	mortality at 10 ppm [1]	LC50 (H. Zea; Helicoverpa zea, read-out: LD50, H. Zea)	LC50 (H. Virecens)	mortality at 3 ppm [1]	mortality at 6 ppm [1]	mortality at 12 ppm [1]	LC50 (H. Zea; [2])	mortality at 1.5 ppm [1]	mortality at 20 ppm [1]
O=C(NC(=O)c1c(F)cccc1F)Nc1ccc(Cl)cc1 [1-(4-chlorophenyl)-3-(2,6-difluorobenzoyl)urea, reference compound]	40%	100%	500 µg/mL (≈ 1610 µM)	31 µg/mL (≈ 99.8 µM)	–	–	–	–	–	–
O=C(NC(=O)c1c(F)cccc1F)Nc1cc(Cl)c(Oc2ccc(S(=O)(=O)c3ccc(Cl)cc3)cc2)c(Cl)c1 [Example 2, 1-(2,6-Difluorobenzoyl)-3-(3,5-dichloro-4-[4-(4-chlorophenylsulfonyl)phenoxy]phenyl)urea]	–	–	–	8.5 µg/mL (≈ 13.9 µM)	100%	90%	100%	12.5 µg/mL (≈ 20.4 µM)	–	–
O=C(NC(=O)c1c(F)cccc1F)Nc1ccc(Oc2ccc(S(=O)(=O)c3ccc(Cl)cc3)cc2)c(Cl)c1 [Example 3, 1-(2,6-difluorobenzoyl)-3-(3-chloro-4-[4-((4-chloro-phenylsulfonyl))-phenoxy]phenyl)urea]	–	–	–	31 µg/mL (≈ 53.7 µM)	56%	75%	100%	31 µg/mL (≈ 53.7 µM)	–	–
O=C(NC(=O)c1c(F)cccc1Cl)Nc1ccc(Oc2ccc(S(=O)(=O)c3ccc(Cl)cc3)cc2)cc1 [Example 9, 1-(2-chloro-6-fluorobenzoyl)-3-(4-[4-(4-chloro-phenylsulfonyl)phenoxy]-phenyl)urea]	–	–	–	–	–	100%	–	–	60%	100%
